Reference: patent US20230278972A1, “SUBSTITUTED HALOALKYL SULFONANILIDE HERBICIDES” (FMC Corporation, priority 2020, published 2023)

Tests used:
Format in all cases: in vivo
[1] = tested on: corn (Zea mays); assay: Test A1 preemergence, corn
How it was run: (§1)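 Both timings started from seed in a loam-sand blend. Preemergence pots got a directed soil application immediately; postemergence pots were sprayed when seedlings had one or two leaves and stood 2–10 cm. Each compound was prepared in a non-phytotoxic solvent plus surfactant.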

[2] = tested on: Foxtail, Giant (giant foxtail, Setaria faberi); assay: Test A1 preemergence, Foxtail, Giant
How it was run: (§2)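 Herbicidal response was scored on plants treated either preemergence, by directed spray onto soil of a loam–sand blend after sowing, or postemergence on potted plants at the one- to two-leaf stage, 2–10 cm high. Test chemicals were carried in a non-phytotoxic solvent mix with surfactant.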

[3] = tested on: Ryegrass, Italian (Italian ryegrass, Lolium multiflorum); assay: Test A1 preemergence, Ryegrass, Italian
How it was run: as §2

[4] = tested on: soybean (Glycine max); assay: Test A1 preemergence, soybean
How it was run: as §2

[5] = tested on: corn (Zea mays); assay: Test A1 postemergence, corn; conditions: Postemergence
How it was run: as §2

[6] = tested on: ragweed (common ragweed, Ambrosia artemisiifolia); assay: Test A1 postemergence, ragweed; conditions: Postemergence
How it was run: as §1

[7] = tested on: galium (catchweed bedstraw, Galium aparine); assay: Test A1 postemergence, galium; conditions: Postemergence
How it was run: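 Plants grown in pots of loam/sand mix; preemergence = soil-directed spray on seeded pots, postemergence = spray at 1–2 leaves, height 2–10 cm; test chemicals formulated in non-phytotoxic solvent with surfactant.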

[8] = tested on: ducksalad (Heteranthera limosa); assay: Test B1 flooded paddy test, ducksalad; conditions: 250 g ai/ha, Flood, applied to paddy water, 2-leaf stage, visually evaluated after 10 to 14 days
From the text: (§3) A dash (-) response means no test result.

[9] = tested on: rice (Oryza sativa); assay: Test B1 flooded paddy test, rice; conditions: 250 g ai/ha, Flood, applied to paddy water, 2-leaf stage, visually evaluated after 10 to 14 days
From the text: as §3

[10] = 31 g ai/ha, 0 to 100 scale (0 no effect, 100 complete control)
[11] = 125 g ai/ha, 0 to 100 scale, 0 no effect, 100 complete control
[12] = 31 g ai/ha, 0 to 100 scale (0 no effect, 100 complete control), 10 days

| Compound | Plant response rating, Corn [1, 10] | Plant response rating, Corn [1, 11] | Plant response rating, Foxtail, Giant [2, 10] | Plant response rating, Foxtail, Giant [2, 11] | Plant response rating, Ryegrass, Italian [3, 10] | Plant response rating, Ryegrass, Italian [3, 11] | Plant response rating, Soybean [4, 10] | Plant response rating, Soybean [4, 11] | Plant response rating, Corn [5, 12] | Plant response rating, Corn ([5]; 125 g ai/ha, 0 to 100 scale) | Plant response rating, Ragweed [6, 12] | Plant response rating, Ragweed ([6]; 125 g ai/ha, 0 to 100 scale) | Plant response rating, Galium [7, 12] | Plant response rating, Galium ([7]; 125 g ai/ha, 0 to 100 scale) | Plant response rating, Ducksalad (0 to 100 scale, 0 is no effect, 100 is complete control) [8] | Plant response rating, Rice (0 to 100 scale, 0 is no effect, 100 is complete control) [9] |
| --- | --- | --- | --- | --- | --- | --- | --- | --- | --- | --- | --- | --- | --- | --- | --- | --- |
| CCOC1CC(c2cc(N(COC(=O)C(C)(C)C)S(=O)(=O)C(F)(F)F)c(C)cc2C)=NO1 (centres unmarked) [Compound 339] | 0 | 0 | 0 | 20 | 30 | 50 | 0 | 0 | 0 | 30 | 40 | 70 | 30 | 50 | 65 | 20 |
| CCC1ON=C(c2cc(NS(=O)(=O)C(F)(F)F)c(C)cc2C)C1CC (centres unmarked) [Compound 343] | 10 | 60 | 90 | 100 | 60 | 100 | 50 | 60 | 10 | 40 | 20 | 80 | 70 | 100 | 45 | 40 |
| CCC1ON=C(c2cc(N(COC(=O)C(C)(C)C)S(=O)(=O)C(F)(F)F)c(C)cc2C)C1CC (centres unmarked) [Compound 344] | 10 | 10 | 30 | 100 | 20 | 40 | 50 | 50 | 20 | 50 | 30 | 60 | 70 | 100 | 90 | 40 |
| CCC1ON=C(c2cc(N(C(=O)OCC(C)C)S(=O)(=O)C(F)(F)F)c(C)cc2C)C1CC (centres unmarked) [Compound 345] | 10 | 10 | 40 | 100 | 30 | 80 | 0 | 0 | 0 | 50 | 30 | 70 | 80 | 100 | 30 | 25 |
| CCC1ON=C(c2cc(NS(=O)(=O)C(F)(F)F)c(C)cc2C)C1CC (centres unmarked) [Compound 346] | 10 | 20 | 60 | 100 | 50 | 90 | 50 | 50 | 20 | 60 | 50 | 70 | 70 | 100 | 65 | 15 |
| CCC1ON=C(c2cc(N(COC(=O)C(C)(C)C)S(=O)(=O)C(F)(F)F)c(C)cc2C)C1CC (centres unmarked) [Compound 347] | 0 | 0 | 0 | 60 | 0 | 0 | 0 | 0 | 0 | 10 | 40 | 70 | 30 | 100 | 55 | 25 |
| CCC1ON=C(c2cc(N(C(=O)OCC(C)C)S(=O)(=O)C(F)(F)F)c(C)cc2C)C1CC (centres unmarked) [Compound 348] | 0 | 10 | 30 | 90 | 0 | 70 | 30 | 40 | 0 | 20 | 10 | 60 | 60 | 80 | 40 | 0 |
| Cc1cc(C)c(C2=NOC3OCCC23)cc1NS(=O)(=O)C(F)(F)F (centres unmarked) [Compound 349] | 20 | 100 | 90 | 100 | 70 | 80 | 20 | 60 | 40 | 90 | 70 | 90 | 100 | 100 | 80 | 45 |
| CCOC(=O)N(c1cc(C(=O)N2CCC(F)(F)CC2)c(C)cc1C)S(=O)(=O)C(F)(F)F [Compound 351] | 0 | 0 | 30 | 100 | 40 | 90 | 20 | 30 | 0 | 70 | 70 | 90 | 80 | 100 | 70 | 50 |
| Cc1cc(C)c(N(COC(=O)C(C)(C)C)S(=O)(=O)C(F)(F)F)cc1C1=NOC2OCCC12 (centres unmarked) [Compound 352] | 10 | 50 | 30 | 100 | 20 | 100 | 30 | 40 | 20 | 80 | 70 | 90 | 100 | 100 | 65 | 35 |
| Cc1cc(C)c(N(COC(=O)C(C)(C)C)S(=O)(=O)C(F)(F)F)cc1C(=O)N1CCC(C)CC1 [Compound 353] | 10 | 30 | 10 | 80 | 0 | 0 | 10 | 30 | 0 | 0 | 20 | 60 | 50 | 70 | 65 | 20 |
| CCOC(=O)N(c1cc(C(=O)N2CCC(C)CC2)c(C)cc1C)S(=O)(=O)C(F)(F)F [Compound 354] | 0 | 0 | 80 | 100 | 20 | 70 | 30 | 70 | 0 | 0 | 40 | 50 | 40 | 80 | 60 | 15 |
| Cc1cc(C2CC2)c(C2=NOC3CCCC23)cc1N(COC(=O)C(C)(C)C)S(=O)(=O)C(F)(F)F (centres unmarked) [Compound 355] | 0 | 0 | 0 | 60 | 20 | 30 | 20 | 30 | 0 | 20 | 60 | 60 | 40 | 60 | 45 | 10 |
| Cc1c(NS(=O)(=O)C(F)(F)F)cc(C(=O)N2CCC(F)CC2)c(C)c1C [Compound 358] | 0 | 50 | 80 | 100 | 0 | 30 | 50 | 70 | 0 | 0 | 80 | 80 | 70 | 100 | 0 | 10 |
